Measurements as given in ChEMBL document CHEMBL4342415, “Inhibition of the Cytolytic Protein Perforin Prevents Rejection of Transplanted Bone Marrow Stem Cells in Vivo” (J Med Chem, 2020).
Blank lines part the entries; values can stand above or below the molecule they belong to. Calls of active or inactive are those of the source. The rule behind the calls is not given here.

Key:
[1] = target: T1, Perforin-1 (Homo sapiens) (UniProt P14222); test: Inhibition of perforin in human KHYG-1 cells pre-treated with compound for 20 mins assessed as reduction in KHYG-1 cells-mediated cell lysis of human K562 cells at 20 uM measured after 4 hrs by 51Cr release based gamma counting method
T1 sequence (whole entry): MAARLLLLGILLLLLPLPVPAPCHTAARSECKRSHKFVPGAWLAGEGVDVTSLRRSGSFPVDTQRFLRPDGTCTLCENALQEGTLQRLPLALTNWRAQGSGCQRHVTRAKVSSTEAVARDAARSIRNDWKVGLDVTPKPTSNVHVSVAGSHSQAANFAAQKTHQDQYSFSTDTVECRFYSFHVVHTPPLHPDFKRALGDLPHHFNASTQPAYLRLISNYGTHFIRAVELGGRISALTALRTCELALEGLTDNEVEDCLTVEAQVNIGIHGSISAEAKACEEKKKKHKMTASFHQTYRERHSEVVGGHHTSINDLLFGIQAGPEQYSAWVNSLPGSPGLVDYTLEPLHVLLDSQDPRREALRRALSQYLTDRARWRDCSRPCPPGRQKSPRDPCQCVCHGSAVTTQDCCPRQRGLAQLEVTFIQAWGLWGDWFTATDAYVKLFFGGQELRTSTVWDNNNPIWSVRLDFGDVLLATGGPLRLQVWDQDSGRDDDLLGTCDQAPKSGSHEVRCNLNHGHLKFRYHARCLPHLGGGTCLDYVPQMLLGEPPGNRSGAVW

[2] = Toxicity in human KHYG-1 cells assessed as cell viability at 10 uM after 24 h by trypan blue exclusion assay relative to control; type: cell-based; settings: read-out: Activity
[3] = Protein binding in CD1 mouse plasma at 10 uM incubated for 6 hrs by LC-MS/MS analysis and equilibrium dialysis; type: ADME, cell-free; settings: read-out: PPB (converted)
[4] = AUC (0 to infinity) in CD1 mouse at 90 mg/kg, ip measured during 15 mins to 24 hrs by LC-MS/MS analysis; type: ADME, organism-based; parameters: dose 90 mg/kg, route intraperitoneal, time infinity; settings: in vivo
[5] = Cmax in CD1 mouse at 90 mg/kg, ip measured during 15 mins to 24 hrs by LC-MS/MS analysis; type: ADME, organism-based; parameters: dose 90 mg/kg, route intraperitoneal; settings: in vivo
[6] = Half life in CD1 mouse at 90 mg/kg, ip measured during 15 mins to 24 hrs by LC-MS/MS analysis; type: ADME, organism-based; settings: in vivo
[7] = Unbound fraction in human KHYG-1 cell media; type: ADME
[8] = Time at which unbound plasma concentration stays above IC50 in C57BL/6 mouse at 90 mg/kg, ip; type: ADME, organism-based; settings: in vivo
[9] = (§1) Toxicity in B6 mouse model of bone marrow transplantation receiving both allogeneic MHC- mismatched BALB/c stem cells and syngeneic MHC-matched B6 stem cells assessed as drug tolerability at 125 mg/kg, ip dosed immediately prior to cell transfer and 18 hrs after cell transfer and measured after 24 hrs relative to control; type: organism-based; settings: in vivo
Mus musculus [10] = test: as §1, with “Suppression of bone marrow transplant rejection” for “Toxicity”, “reduction in perforin-dependent NK cell-mediated graft rejection in spleen” for “drug tolerability”; type: functional; parameters: scale not given: the % may be the effect or the level left
Mus musculus [11] = test: as §1, with “Suppression of bone marrow transplant rejection” for “Toxicity”, “reduction in perforin-dependent NK cell-mediated graft rejection in peripheral blood” for “drug tolerability”; type: functional; parameters: scale not given: the % may be the effect or the level left
[12] = Stability in human liver microsomes assessed as parent compound remaining level at 3 uM pre-incubated for 30 mins before NADPH addition by LC-MS/MS analysis; type: ADME, Microsome; settings: read-out: Stability
[13] = Solubility in water by HPLC analysis; type: physicochemical
[14] = Stability in Sprague-Dawley rat liver microsomes assessed as parent compound remaining level at 3 uM pre-incubated for 30 mins before NADPH addition by LC-MS/MS analysis; type: ADME, Microsome; settings: read-out: Stability
[15] = Stability Milli-Q water at 10 uM incubated for 24 hrs by LC-MS/MS analysis; type: physicochemical; settings: read-out: Stability
[16] = Stability in CD1 mouse liver microsomes assessed as parent compound remaining level at 3 uM pre-incubated for 30 mins before NADPH addition by LC-MS/MS analysis; type: ADME, Microsome; settings: read-out: Stability
[17] = Cmax in CD1 mouse at 150 mg/kg, ip measured during 15 mins to 24 hrs by LC-MS/MS analysis; type: ADME, organism-based; parameters: dose 150 mg/kg, route intraperitoneal; settings: in vivo
[18] = Half life in CD1 mouse at 150 mg/kg, ip measured during 15 mins to 24 hrs by LC-MS/MS analysis; type: ADME, organism-based; settings: in vivo
[19] = AUC (0 to infinity) in CD1 mouse at 150 mg/kg, ip measured during 15 mins to 24 hrs by LC-MS/MS analysis; type: ADME, organism-based; parameters: dose 150 mg/kg, time infinity, route intraperitoneal; settings: in vivo
[20] = Half life in CD1 mouse at 75 mg/kg, ip measured during 15 mins to 24 hrs by LC-MS/MS analysis; type: ADME, organism-based; settings: in vivo
[21] = AUC (0 to infinity) in CD1 mouse at 75 mg/kg, ip measured during 15 mins to 24 hrs by LC-MS/MS analysis; type: ADME, organism-based; parameters: dose 75 mg/kg, route intraperitoneal, time infinity; settings: in vivo
[22] = Cmax in CD1 mouse at 75 mg/kg, ip measured during 15 mins to 24 hrs by LC-MS/MS analysis; type: ADME, organism-based; parameters: dose 75 mg/kg, route intraperitoneal; settings: in vivo

Structure (SMILES): COc1ncc(-c2ccc(-c3cnc4c(c3)CN(C)C4=O)s2)cc1NS(=O)(=O)c1ccc(F)cc1F
Time [8]: 5 to 6 h
Activity [9]: Non-Toxic
Activity (Mus musculus [10]): 66%
viability at 24 h, 10 µM [2]: 90.6%
fraction unbound at 6 h, 10 µM [3]: 0.0009
AUC(0-inf) [4]: 42500 µM·h
Cmax [5]: 1310 µM
half-life [6]: 18.9 h
fraction unbound [7]: 0.255
Activity (Mus musculus [11]): 66%

Structure (SMILES): COc1ncc(-c2ccc(-c3cnc4c(c3)CN(C)C4=O)s2)cc1NS(=O)(=O)c1ccccc1C(F)(F)F
viability at 24 h, 10 µM [2]: 95.8%

Structure (SMILES): CN1Cc2cc(-c3ccc(-c4cncc(NS(=O)(=O)c5cccc(C(F)(F)F)c5)c4)s3)cnc2C1=O [listing 1 of 2 here]
viability at 24 h, 10 µM [2]: 97.8%

Structure (SMILES): O=C1NCc2cc(-c3ccc(-c4cncc([N-]S(=O)(=O)c5ccc(F)cc5F)c4)s3)cnc21.[Na+]
solubility [13]: 1130 µg/mL

Structure (SMILES): O=C1NCc2cc(-c3ccc(-c4cncc(NS(=O)(=O)c5ccc(F)cc5F)c4)s3)cnc21
viability at 24 h, 10 µM [2]: 49%

Structure (SMILES): COc1ncc(-c2ccc(-c3cnc4c(c3)CN(C)C4=O)s2)cc1NS(=O)(=O)c1ccccc1[N+](=O)[O-]
viability at 24 h, 10 µM [2]: 95.8%
half-life [20]: 1.6 h
fraction unbound at 6 h, 10 µM [3]: 0.0009
AUC(0-inf) [21]: 2240 µM·h
Cmax [22]: 637 µM

Structure (SMILES): O=C1NCc2ncc(-c3ccc(-c4cncc([N-]S(=O)(=O)c5ccc(F)cc5F)c4)s3)cc21.[Na+]
remaining at 3 µM [12]: 95%
solubility [13]: 3770 µg/mL
remaining at 3 µM [14]: 100%
remaining at 24 h, 10 µM [15]: 93%
remaining at 3 µM [16]: 83%

Structure (SMILES): COc1ncc(-c2ccc(-c3cnc4c(c3)CN(C)C4=O)s2)cc1[N-]S(=O)(=O)c1ccccc1[N+](=O)[O-].[Na+]
remaining at 3 µM [12]: 94%
solubility [13]: 4810 µg/mL
remaining at 3 µM [14]: 80%
remaining at 24 h, 10 µM [15]: 100%
remaining at 3 µM [16]: 95%

Structure (SMILES): CN1Cc2cc(-c3ccc(-c4cncc([N-]S(=O)(=O)c5ccccc5C(F)(F)F)c4)s3)cnc2C1=O.[Na+]
remaining at 3 µM [12]: 56%
solubility [13]: 4280 µg/mL
remaining at 3 µM [14]: 36%
remaining at 3 µM [16]: 86%

Structure (SMILES): CN1Cc2cc(-c3ccc(-c4cncc(NS(=O)(=O)c5ccccc5C(F)(F)F)c4)s3)cnc2C1=O
viability at 24 h, 10 µM [2]: 100%

Structure (SMILES): COc1ncc(-c2ccc(-c3cnc4c(c3)CN(C)C4=O)s2)cc1[N-]S(=O)(=O)c1ccccc1C(F)(F)F.[Na+]
remaining at 3 µM [12]: 63%
solubility [13]: 7340 µg/mL
remaining at 3 µM [14]: 50%
remaining at 3 µM [16]: 91%

Structure (SMILES): CN1Cc2cc(-c3ccc(-c4cncc([N-]S(=O)(=O)c5cccc(C(F)(F)F)c5)c4)s3)cnc2C1=O.[Na+]
remaining at 3 µM [12]: 46%
solubility [13]: 20300 µg/mL
remaining at 3 µM [14]: 84%
remaining at 3 µM [16]: 88%

Structure (SMILES): COc1ncc(-c2ccc(-c3cnc4c(c3)CN(C)C4=O)s2)cc1[N-]S(=O)(=O)c1ccc(F)cc1F.[Na+]
remaining at 3 µM [12]: 75%
solubility [13]: 18300 µg/mL
remaining at 3 µM [14]: 100%
remaining at 24 h, 10 µM [15]: 100%
remaining at 3 µM [16]: 100%

The next lines start with results.

inhibition [1]: 40%
Structure (SMILES): O=C1NCc2ncc(-c3ccc(-c4cncc(NS(=O)(=O)c5ccc(F)cc5F)c4)s3)cc21 [listing 1 of 2 here]

inhibition [1]: inactive
Structure (SMILES): O=C1c2ccc(-c3ccc(-c4cncc(NS(=O)(=O)c5ccc(F)cc5F)c4)s3)cc2CN1CCN1CCCCC1

fraction unbound at 6 h, 10 µM [3]: 0.0006
AUC(0-inf) [4]: 10400 µM·h
Cmax [5]: 860 µM
half-life [6]: 6.8 h
fraction unbound [7]: 0.456
Structure (SMILES): CN1Cc2cc(-c3ccc(-c4cncc(NS(=O)(=O)c5ccc(F)cc5F)c4)s3)cnc2C1=O
viability at 24 h, 10 µM [2]: 99.6%

remaining at 3 µM [12]: 80%
solubility [13]: 20300 µg/mL
remaining at 3 µM [14]: 100%
remaining at 24 h, 10 µM [15]: 100%
remaining at 3 µM [16]: 100%
Structure (SMILES): CN1Cc2cc(-c3ccc(-c4cncc([N-]S(=O)(=O)c5ccc(F)cc5F)c4)s3)cnc2C1=O.[Na+]

Cmax [17]: 1320 µM
half-life [18]: 5.5 h
fraction unbound at 6 h, 10 µM [3]: 0.0011
AUC(0-inf) [19]: 7670 µM·h
Structure (SMILES): O=C1NCc2ncc(-c3ccc(-c4cncc(NS(=O)(=O)c5ccc(F)cc5F)c4)s3)cc21 [listing 2 of 2 here]
viability at 24 h, 10 µM [2]: 100%

inhibition [1]: inactive
Structure (SMILES): O=C1c2ccc(-c3ccc(-c4cncc(NS(=O)(=O)c5ccc(F)cc5F)c4)s3)cc2CN1CC(O)CO (configuration not stated)

inhibition [1]: inactive
Structure (SMILES): O=C1c2ccc(-c3ccc(-c4cncc(NS(=O)(=O)c5ccc(F)cc5F)c4)s3)cc2CN1CCCO

inhibition [1]: inactive
Structure (SMILES): CN1CCN(CCN2Cc3cc(-c4ccc(-c5cncc(NS(=O)(=O)c6ccc(F)cc6F)c5)s4)ccc3C2=O)CC1

inhibition [1]: inactive
Structure (SMILES): O=C1c2ccc(-c3ccc(-c4cncc(NS(=O)(=O)c5ccc(F)cc5F)c4)s3)cc2CN1CCN1CCCC1

inhibition [1]: inactive
Structure (SMILES): O=C1c2ccc(-c3ccc(-c4cncc(NS(=O)(=O)c5ccc(F)cc5F)c4)s3)cc2CN1CCN1CCOCC1

inhibition [1]: 40%
Structure (SMILES): CN1Cc2cc(-c3ccc(-c4cncc(NS(=O)(=O)c5cccc(C(F)(F)F)c5)c4)s3)cnc2C1=O [listing 2 of 2 here]

inhibition [1]: inactive
Structure (SMILES): CN(C)CCN1Cc2cc(-c3ccc(-c4cncc(NS(=O)(=O)c5ccc(F)cc5F)c4)s3)ccc2C1=O
